Measurements from the supplement of paper PMC9663587.

Columns and labels:
[1] = compound: NC(=O)Nc1cc(-c2cccc(F)c2)sc1C(=O)N[C@H]1CCCNC1 [AZD7762]; assay: GR value, 72 h; higher = faster growth (1 = untreated, <0 = killing);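 also: breast cancer and non-malignant breast epithelial lines, nine half-log doses, viable cells counted by Hoechst and LIVE/DEAD dye imaging versus time-zero plates and DMSO controls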
[2] = compound: CN(C)C/C=C/C(=O)NC1=CC=C(C=C1)C(=O)NC2=CC=CC(=C2)NC3=NC=NC(=C3)C4=CNC5=CC=CC=C54 [THZ-P1-2]; assay: as above
[3] = compound: CCC1=CN=CN=C1N2CCN(CC2)CC3=NC4=C(N3)C=C(C=C4)C(F)(F)F; assay: as above
[4] = compound: CC1=CN2C(=O)C=C(N=C2C(=C1)C(C)NC3=CC=CC=C3)N4CCOCC4 [TGX221]; assay: as above
[5] = compound: Cc1cc(Nc2ncc(Cl)c(Nc3ccccc3S(=O)(=O)C(C)C)n2)c(OC(C)C)cc1C1CCNCC1 [Ceritinib/LDK378]; assay: as above
[6] = compound: O=C(c1cc(Cc2n[nH]c(=O)c3ccccc23)ccc1F)N1CCN(C(=O)C2CC2)CC1 [Olaparib/AZD2281]; assay: as above
[7] = compound: O=C1NC(=O)[C@@H](c2cn3c4c(cccc24)CCC3)[C@@H]1c1c[nH]c2ccccc12 [Tivantinib/ARQ197]; assay: as above
[8] = compound: CNc1nc(-c2ccc3c(N)n[nH]c3c2)cc(N2C[C@@H](C(=O)NC3CCCCC3)CC[C@H]2C)n1; assay: as above
[9] = compound: C=CCn1c(=O)c2cnc(Nc3ccc(N4CCN(C)CC4)cc3)nc2n1-c1cccc(C(C)(C)O)n1 [AZD1775]; assay: as above
[10] = compound: COc1cccc2c1C(=O)c1c(O)c3c(c(O)c1C2=O)C[C@@](O)(C(=O)CO)C[C@@H]3O[C@H]1C[C@H](N)[C@H](O)[C@H](C)O1 [Doxorubicin]; assay: increase in dead-cell fraction, 72 h; higher = more death;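 also: breast cancer cell lines in 384-well plates, stained with Hoechst plus LIVE/DEAD far red dye and imaged, cells above an LDR intensity threshold counted dead, Hoechst-negative corpses included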
[11] = compound: CN(C)C/C=C/C(=O)Nc1ccc(O[C@@H]2CCC[C@@H](Nc3ncc(Cl)c(-c4c[nH]c5ccccc45)n3)C2)cc1 [BSJ-01-175]; assay: as above
[12] = compound: CCC(=O)Nc1ccc(C(=O)Nc2ccc(Nc3ncc4c(n3)N(C)c3ccc(C)cc3C(=O)N4C)cc2)cc1 [FMF-03-145-1]; assay: as above

AU565 gave a GR value ([1]; 0.001 µM) of 1.01 GR, a GR value ([1]; 0.003162 µM) of 1.01 GR and a GR value ([1]; 0.01 µM) of 1.08 GR. For the same cell line, the GR value ([1]; 0.03162 µM) was 1.03 GR, the GR value ([1]; 0.1 µM) was 0.976 GR and the GR value ([1]; 0.3162 µM) was 0.756 GR. For the same cell line, the GR value ([1]; 1 µM) was 0.41 GR, the GR value ([1]; 3.162 µM) was -0.179 GR and the GR value ([1]; 10 µM) was -0.57 GR. The GR value ([2]; 0.01 µM) was 0.964 GR, the GR value ([2]; 0.03162 µM) was 1.02 GR and the GR value ([2]; 0.1 µM) was 0.979 GR. The GR value ([2]; 0.3162 µM) was 0.842 GR, the GR value ([2]; 1 µM) was 0.865 GR and the GR value ([2]; 3.162 µM) was 0.881 GR. For the same cell line, the GR value ([2]; 10 µM) was -0.648 GR, the GR value ([3]; 0.001 µM) was 1.03 GR and the GR value ([3]; 0.003162 µM) was 1.08 GR. For the same cell line, the GR value ([3]; 0.01 µM) was 1.01 GR, the GR value ([3]; 0.03162 µM) was 1.09 GR and the GR value ([3]; 0.1 µM) was 0.997 GR. The GR value ([3]; 0.3162 µM) was 0.985 GR, the GR value ([3]; 1 µM) was 0.932 GR and the GR value ([3]; 3.162 µM) was 0.808 GR. It also gave a GR value ([3]; 10 µM) of 0.486 GR, a GR value ([4]; 0.001 µM) of 0.923 GR and a GR value ([4]; 0.003162 µM) of 0.912 GR. It also gave a GR value ([4]; 0.01 µM) of 0.868 GR, a GR value ([4]; 0.03162 µM) of 0.964 GR and a GR value ([4]; 0.1 µM) of 0.916 GR. The GR value ([4]; 0.3162 µM) was 0.889 GR, the GR value ([4]; 1 µM) was 0.919 GR and the GR value ([4]; 3.162 µM) was 0.852 GR. It also gave a GR value ([4]; 10 µM) of 0.58 GR, a GR value ([5]; 0.001 µM) of 1.01 GR and a GR value ([5]; 0.003162 µM) of 0.971 GR. The GR value ([5]; 0.01 µM) was 1 GR, the GR value ([5]; 0.03162 µM) was 1.01 GR and the GR value ([5]; 0.1 µM) was 0.983 GR. It also gave a GR value ([5]; 0.3162 µM) of 0.993 GR, a GR value ([5]; 1 µM) of 0.887 GR and a GR value ([5]; 3.162 µM) of 0.479 GR. It also gave a GR value ([6]; 0.001 µM) of 0.901 GR, a GR value ([6]; 0.003162 µM) of 1 GR and a GR value ([6]; 0.01 µM) of 1.02 GR. It also gave a GR value ([6]; 0.03162 µM) of 1.04 GR, a GR value ([6]; 0.1 µM) of 1 GR and a GR value ([6]; 0.3162 µM) of 0.907 GR. It also gave a GR value ([6]; 1 µM) of 0.942 GR, a GR value ([6]; 3.162 µM) of 0.979 GR and a GR value ([6]; 10 µM) of 0.577 GR. The GR value ([7]; 0.001 µM) was 1.08 GR, the GR value ([7]; 0.003162 µM) was 1.04 GR and the GR value ([7]; 0.01 µM) was 1.1 GR. For the same cell line, the GR value ([7]; 0.03162 µM) was 1.03 GR, the GR value ([7]; 0.1 µM) was 0.841 GR and the GR value ([7]; 0.3162 µM) was 0.191 GR. The GR value ([7]; 1 µM) was -0.542 GR, the GR value ([7]; 3.162 µM) was -0.468 GR and the GR value ([7]; 10 µM) was -0.479 GR. For the same cell line, the GR value ([8]; 0.001 µM) was 0.974 GR, the GR value ([8]; 0.003162 µM) was 0.901 GR and the GR value ([8]; 0.01 µM) was 0.723 GR. It also gave a GR value ([8]; 0.03162 µM) of 0.933 GR, a GR value ([8]; 0.1 µM) of 0.894 GR and a GR value ([8]; 0.3162 µM) of 0.766 GR. The GR value ([8]; 1 µM) was 0.655 GR, the GR value ([8]; 3.162 µM) was 0.747 GR and the GR value ([8]; 10 µM) was 0.392 GR. It also gave a GR value ([9]; 0.001 µM) of 0.879 GR, a GR value ([9]; 0.003162 µM) of 0.913 GR and a GR value ([9]; 0.01 µM) of 0.779 GR. It also gave a GR value ([9]; 0.03162 µM) of 0.585 GR, a GR value ([9]; 0.1 µM) of 0.612 GR and a GR value ([9]; 0.3162 µM) of 0.521 GR. It also gave a GR value ([9]; 1 µM) of 0.288 GR, a GR value ([9]; 3.162 µM) of 0.207 GR and a GR value ([9]; 10 µM) of -0.514 GR. For the same cell line, the “increase in dead-cell fraction” value ([10]; 0.0003162 µM) was 0.0037, the “increase in dead-cell fraction” value ([10]; 0.001 µM) was 0.0029 and the “increase in dead-cell fraction” value ([10]; 0.003162 µM) was -0.0003. For the same cell line, the “increase in dead-cell fraction” value ([10]; 0.01 µM) was -0.0009, the “increase in dead-cell fraction” value ([10]; 0.03162 µM) was 0.0192 and the “increase in dead-cell fraction” value ([10]; 0.1 µM) was 0.0682. For the same cell line, the “increase in dead-cell fraction” value ([10]; 0.3162 µM) was 0.138, the “increase in dead-cell fraction” value ([10]; 1 µM) was 0.199 and the “increase in dead-cell fraction” value ([10]; 3.162 µM) was 0.22. For the same cell line, the “increase in dead-cell fraction” value ([11]; 0.001 µM) was -0.006, the “increase in dead-cell fraction” value ([11]; 0.003162 µM) was 0.0214 and the “increase in dead-cell fraction” value ([11]; 0.01 µM) was 0.121. For the same cell line, the “increase in dead-cell fraction” value ([11]; 0.03162 µM) was 0.26, the “increase in dead-cell fraction” value ([11]; 0.1 µM) was 0.296 and the “increase in dead-cell fraction” value ([11]; 0.3162 µM) was 0.35. For the same cell line, the “increase in dead-cell fraction” value ([11]; 1 µM) was 0.443, the “increase in dead-cell fraction” value ([11]; 3.162 µM) was 0.432 and the “increase in dead-cell fraction” value ([11]; 10 µM) was 0.68. The “increase in dead-cell fraction” value ([12]; 0.0001 µM) was 0.0006, the “increase in dead-cell fraction” value ([12]; 0.0003162 µM) was 0.0131 and the “increase in dead-cell fraction” value ([12]; 0.001 µM) was 0.0011. For the same cell line, the “increase in dead-cell fraction” value ([12]; 0.003162 µM) was 0.0053, the “increase in dead-cell fraction” value ([12]; 0.01 µM) was 0.231 and the “increase in dead-cell fraction” value ([12]; 0.03162 µM) was 0.127. For the same cell line, the “increase in dead-cell fraction” value ([12]; 0.1 µM) was 0.102.
